Results: the supplement of paper PMC4862054
“And” between values parts separate entries of the source, which are not always exact repeats. Equal entries are not always repeated.

Legend:
Settings in all cases: incubation time: 72 h
HCC1599 [1] = assay: drug sensitivity score (DSS), CellTox Green (DSS (AUC-based score)); higher = stronger drug effect (viability inhibition or cytotoxicity); extreme values may be limits of the assay
In short: (§1)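 Each compound occupied 5 concentrations in 10-fold steps over its own 10,000-fold range in 384-well plates, into which breast cancer cell lines were seeded as 20 µl suspension. Following 72 h of incubation, CellTox Green fluorescence (485/520 nm) was measured, and CellTiter-Glo luminescence was measured after 10 min at room temperature. Plates were individually normalised to 0.1 % DMSO and a positive kill control. From the area under the fitted dose-response curve, a drug sensitivity score was calculated.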

MDA-MB-436 [2] = assay: as above
In short: as §1

HDQ-P1 [3] = assay: as above
In short: as §1

BT-549 [4] = assay: as above
In short: as §1

MDA-MB-231 [5] = assay: as above
In short: as §1

HCC1937 [6] = assay: as above
In short: as §1

CAL-85-1 = assay: normalised viability (% of control), CellTiter-Blue; higher = more viable cells (about 100 = DMSO control)
In short: (§2)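 The reported quantity is normalised viability at a single listed concentration of the series. Compound in 5 µl medium was pre-dispensed into 384-well plates and 20 µl of breast cancer cell suspension was added for 72 h. A 2 h, 37 °C CellTiter-Blue step (2.5 µl) preceded fluorescence reading at 560/590 nm, and plates were normalised to vehicle (100) and a positive kill control (0).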

HCC1599 [7] = assay: as above
In short: as §2

CAL-51 = assay: as above
In short: as §2

MDA-MB-436 [8] = assay: as above
In short: as §2

MDA-MB-453 = assay: as above
In short: as §2

MFM-223 = assay: as above
In short: as §2

CAL-148 = assay: as above
In short: as §2

HDQ-P1 [9] = assay: as above
In short: as §2

CAL-120 = assay: as above
In short: as §2

BT-549 [10] = assay: as above
In short: as §2

SK-BR-3 = assay: as above
In short: as §2

MDA-MB-231 [11] = assay: as above
In short: as §2

Hs578T = assay: as above
In short: as §2

HCC1937 [12] = assay: as above
In short: as §2

MDA-MB-468 = assay: as above
In short: as §2

HCC1143 = assay: as above
In short: as §2

BT-474 = assay: as above
In short: as §2

DU-4475 = assay: as above
In short: as §2

Nc1ccccc1NC(=O)c1ccc(CNc2nccc(-c3cccnc3)n2)cc1 [Mocetinostat]
Settings	drug sensitivity score
BT-549 [4]	1.91
HCC1599 [1]	1.87
HCC1937 [6]	0.396
HDQ-P1 [3]	14.5
MDA-MB-231 [5]	8.8
MDA-MB-436 [2]	10.1

normalised viability [%]
Settings	3 nM	10 nM	30 nM	100 nM	1000 nM	10000 nM
BT-474	–	113	–	–	96.8	25.6
BT-549 [10]	–	91	–	–	67.1	35.9
CAL-51	106	–	96.9	97.7	–	–
CAL-85-1	93.3	–	82	86.9	–	–
CAL-120	–	74.8	–	–	40.5	18.1
CAL-148	89.2	–	93.7	99.8	–	–
DU-4475	97.2	–	98.5	103	–	–
HCC1143	–	78.5	–	–	67	16.7
HCC1599 [7]	–	102	–	–	54.6	23.5
HCC1937 [12]	–	84.4	–	–	70.4	21.4
HDQ-P1 [9]	108	–	119	74	–	–
Hs578T	–	96.8	–	–	81.4	12.6
MDA-MB-231 [11]	–	85.7	–	–	75.7	22.4
MDA-MB-436 [8]	–	94	–	–	61.2	28.9
MDA-MB-453	116	–	96.1	87.5	–	–
MDA-MB-468	–	109	–	–	84.8	8.4
MFM-223	–	88	–	–	80.9	31.6
SK-BR-3	–	101	–	–	55.5	3.29

COc1nc(N)nc2c1ncn2[C@@H]1O[C@H](CO)[C@@H](O)[C@@H]1O [Nelarabine]
Settings	drug sensitivity score
BT-549 [4]	0.855
HCC1599 [1]	0
HCC1937 [6]	0
HDQ-P1 [3]	0
MDA-MB-231 [5]	0
MDA-MB-436 [2]	0

Settings	normalised viability
BT-474, 10 nM	96.7% and 102%
BT-474, 1000 nM	92.1% and 93.3%
BT-474, 10000 nM	92.8% and 94.6%
BT-549 [10], 10 nM	95.2% and 85.3%
BT-549 [10], 1000 nM	98% and 91%
BT-549 [10], 10000 nM	86.4% and 80.4%
CAL-51, 3 nM	106% and 105%
CAL-51, 30 nM	98.7% and 104%
CAL-51, 100 nM	97.4% and 106%
CAL-85-1, 3 nM	99.3% and 102%
CAL-85-1, 30 nM	98.7% and 100%
CAL-85-1, 100 nM	101% and 102%
CAL-120, 10 nM	109% and 93.6%
CAL-120, 1000 nM	96.1% and 105%
CAL-120, 10000 nM	95.9% and 107%
CAL-148, 3 nM	92% and 97%
CAL-148, 30 nM	94.7% and 93.5%
CAL-148, 100 nM	95.4% and 91.8%
DU-4475, 3 nM	117% and 116%
DU-4475, 30 nM	97% and 101%
DU-4475, 100 nM	106% and 126%
HCC1143, 1000 nM	103% and 88.2%
HCC1143, 10000 nM	105% and 89.6%
HCC1599 [7], 10 nM	115% and 117%
HCC1599 [7], 1000 nM	108% and 123%
HCC1599 [7], 10000 nM	136% and 114%
HCC1937 [12], 1000 nM	109% and 93.9%
HCC1937 [12], 10000 nM	92.3% and 80.8%
HDQ-P1 [9], 3 nM	77.3% and 89.3%
HDQ-P1 [9], 30 nM	91.1% and 89.2%
Hs578T, 10 nM	103% and 92.6%
Hs578T, 1000 nM	103% and 95.2%
Hs578T, 10000 nM	89.4% and 85.8%
MDA-MB-231 [11], 10 nM	88.9% and 90.1%
MDA-MB-231 [11], 1000 nM	87.8% and 95%
MDA-MB-231 [11], 10000 nM	92.7% and 89.8%
MDA-MB-436 [8], 10000 nM	91.2% and 94.8%
MDA-MB-453, 3 nM	93.2% and 104%
MDA-MB-453, 30 nM	99.5% and 116%
MDA-MB-453, 100 nM	93.8% and 101%
MDA-MB-468, 10 nM	97.3% and 99%
MDA-MB-468, 1000 nM	93.2% and 93.8%
MDA-MB-468, 10000 nM	94.3% and 93.1%
MFM-223, 10 nM	108% and 111%
MFM-223, 1000 nM	94.9% and 98.1%
MFM-223, 10000 nM	103% and 104%
SK-BR-3, 10 nM	93.9% and 93.6%
SK-BR-3, 10000 nM	102% and 82.1%

Cc1ccc(Nc2nccc(N(C)c3ccc4c(C)n(C)nc4c3)n2)cc1S(N)(=O)=O [Pazopanib]
Settings	drug sensitivity score
BT-549 [4]	0
HCC1599 [1]	0
HCC1937 [6]	0
HDQ-P1 [3]	0
MDA-MB-231 [5]	0
MDA-MB-436 [2]	0

normalised viability [%]
Settings	3 nM	10 nM	30 nM	100 nM	1000 nM	10000 nM
BT-474	–	105	–	–	109	104
BT-549 [10]	–	86.8	–	–	86.6	45.6
CAL-51	108	–	103	99.9	–	–
CAL-85-1	92.2	–	77.8	95.3	–	–
CAL-120	–	85.5	–	–	91.2	97.5
CAL-148	78.5	–	88.9	82.1	–	–
DU-4475	97	–	100	104	–	–
HCC1143	–	76.5	–	–	101	60.7
HCC1599 [7]	–	96.5	–	–	115	104
HCC1937 [12]	–	86.7	–	–	92	94.3
HDQ-P1 [9]	107	–	103	99.2	–	–
Hs578T	–	117	–	–	98.1	90.8
MDA-MB-231 [11]	–	86.3	–	–	88.7	61.4
MDA-MB-436 [8]	–	97.5	–	–	77.4	77.4
MDA-MB-453	97.7	–	108	102	–	–
MDA-MB-468	–	106	–	–	108	99.4
MFM-223	–	86.8	–	–	51.8	58.6
SK-BR-3	–	98.4	–	–	99	88.1
